Here are results for one compound from publication PMC7450057, “Enhancing intracellular accumulation and target engagement of PROTACs with reversible covalent chemistry” (Nature Communications, 2020).

“And” between values parts separate entries of the source, which are not always exact repeats. Equal entries are not always repeated.

For data set [1], the target named is T1, {BTK-PROTAC-CRBN} ternary complex (Homo sapiens, UniProt Q06187+Q96SW2).
T1 construct: full-length CRBN was first cloned into pcDNA3 containing EGFP; expressed in transfected cells; host or cells: HEK293T/17
T1 sequence (Q06187 382-659 limits assumed): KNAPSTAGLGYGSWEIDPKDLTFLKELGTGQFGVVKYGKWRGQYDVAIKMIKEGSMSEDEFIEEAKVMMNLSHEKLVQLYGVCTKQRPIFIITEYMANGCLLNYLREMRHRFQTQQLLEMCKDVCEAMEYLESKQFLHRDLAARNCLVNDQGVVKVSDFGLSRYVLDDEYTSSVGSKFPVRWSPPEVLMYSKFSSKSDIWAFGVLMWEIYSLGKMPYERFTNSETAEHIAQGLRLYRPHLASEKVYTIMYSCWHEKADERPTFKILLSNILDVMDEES
T1 sequence (Q96SW2 whole entry): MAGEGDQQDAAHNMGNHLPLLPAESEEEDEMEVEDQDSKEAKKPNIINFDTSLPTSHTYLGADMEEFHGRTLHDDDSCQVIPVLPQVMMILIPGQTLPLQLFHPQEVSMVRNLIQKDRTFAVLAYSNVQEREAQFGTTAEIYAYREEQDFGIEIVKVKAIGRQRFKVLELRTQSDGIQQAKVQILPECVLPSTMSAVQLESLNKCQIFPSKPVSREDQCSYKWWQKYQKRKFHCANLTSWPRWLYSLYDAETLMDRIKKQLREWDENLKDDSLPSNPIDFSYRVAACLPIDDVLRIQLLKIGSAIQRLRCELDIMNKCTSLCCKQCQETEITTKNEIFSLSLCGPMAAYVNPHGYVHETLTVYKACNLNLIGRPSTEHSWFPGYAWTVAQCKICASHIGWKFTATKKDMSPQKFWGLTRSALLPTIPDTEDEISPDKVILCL
In words: BTK-SPPIER imaging of ternary complex formation in live cells. Type of data set: cell-based. Particulars: HEK293T/17 cells, 10 µM. The text has this:
To visualize small molecule-induced protein–protein interactions (PPIs), we recently applied fluorophore phase transition-based principle and designed a PPI assay named separation of phases-based protein interaction reporter (SPPIER)[36]. A SPPIER protein design includes three domains, a protein-of-interest, an enhanced GFP (EGFP), and a homo-oligomeric tag (HOTag). Upon small molecule-induced PPI between two proteins-of-interest, multivalent PPIs from HOTags drive EGFP phase separation, forming brightly fluorescent droplets. […] If PROTACs can induce {BTK-PROTAC-CRBN} ternary complex formation in cells, they will crosslink the BTK^KD-EGFP-HOTag6 tetramers and the CRBN-EGFP-HOTag3 hexamers to produce EGFP phase separation, which can be conveniently visualized with a fluorescence microscope. […]
HEK293T/17 cells were transiently transfected with the plasmid using calcium phosphate transfection reagent or lipofectamine. […] Fluorescence images were acquired with an exposure time of 50 ms for EGFP. […]
For analysis of the SPPIER signal, images were processed in imageJ. The sum of droplet pixel fluorescence intensity and cell pixel intensity was scored using the Analyze Particle function in imageJ.

Another data set relates to IKZF3. As to the kind of experiment: Splenic IKZF3 level in mice after single RC-1 injection (western blot). Type of data set: in vivo, ICR mice. The following applies: for IKZF3 level, mean: Figure 5d, DMSO = 100; for IKZF3 quantification: Supplementary Figure 8, individual animals. Here is the method: To investigate the protein degradation effect of RC-1 in vivo, mice were subjected to single RC-1 administration at the dose of 50 or 100 mg kg^−1 (i.p.) or seven once-daily RC-1 administration at the dose of 20 mg kg^−1 (i.p.) (n = 2–3). Twenty-four hours after the one-time RC-1 injection or 24 h after the 7th injection, mice were anesthetized with isoflurane and the whole spleen was dissected and stored at −80 °C for western blot analysis of protein level.
Supplementary Figure 8. Protein degradation by BTK PROTAC RC-1 in mouse spleen. ICR mice were subjected to single IP injection of RC-1 at the dose of 50 mg/kg (n = 4) or 100 mg/kg (n = 3) and spleens were harvested 24 h after injection. (a) The splenic p-BTK(Y233), BTK, IKZF1 and IKZF3 levels were measured with Western blot. (b). Quantification of protein levels shown in (a). Data are presented as mean values ± SEM.
Asterisks indicate that the differences between samples are statistically significant, using two-tailed, unpaired t- […]
test (* p < 0.05; significant).
(1 picture or pasted object on this page, not shown here)
A general note: A western blot detects proteins with antibodies after separation by electrophoresis.

The nature of data set [2]: Pharmacokinetics of RC-1 in mice. It is filed as in vivo, ICR mice. The method, then:
The pharmacokinetic profile of the BTK PROTAC RC-1 was evaluated in female ICR mice (weighing 22-28 g, n = 3). RC-1 was formulated in a […] solvent (30% PEG-400, 5% Tween 80, and 5% DMSO in deionized water) and was administered in a single IP injection (20 mg kg^−1). Blood samples (25 µL) were withdrawn from the tail vein at the time points of 10 min, 30 min, 1 h, 2 h, 4 h, 8 h, and up to 24 h after dosing. The blood samples were collected into 1.5 mL centrifuge tubes coated with 0.5 M EDTA and were immediately centrifuged at 12,000 × g at 4 °C for 15 min. The resultant plasma was extracted with 9 vol of acetonitrile (containing internal standard: 250 nM of RNC-Ctrl) and then were centrifuged at the same conditions described above. The supernatant was stored at −80 °C for liquid chromatography-mass spectrometry analysis. The standard curve was established by serially diluted RC-1 in plasma collected from naïve mice (from 5.0 to 0.003 μg mL^−1, 4-fold dilution). The PK parameters were calculated with the Microsoft Excel PK Solver.

Where [3] appears, read: female, mouse, ip, 20 mg kg^−1, i.p., ICR mice, plasma.

As for `CN(CCCNC(=O)CNc1cccc2c1C(=O)N(C1CCC(=O)NC1=O)C2=O)C(C)(C)C=C(C#N)C(=O)N1CCC[C@@H](n2nc(-c3ccc(Oc4ccccc4)cc3)c3c(N)ncnc32)C1` (stereo partly drawn) [RC-1], in data set [1], the “green fluorescent droplets (ternary complex formation)” value is given as “induced appreciable green fluorescent droplets”. Besides, the “IKZF3 level, mean” value with IKZF3 (1 injection) was 34.6975; with IKZF3 (7 injections), 73.2929. For the same compound, the IKZF3 quantification in the data set with IKZF3 (RC-1 50 mg/kg, 50 mg/kg) is 18.4248 and 33.3032 and 114.952 and 16.6702; in the data set with IKZF3 (RC-1 100 mg/kg, 100 mg/kg) it was 2.1 and 60.2254 and 21.7286. This compound also came in with an AUC in data set [2] (setting [3]) of 72 µM·h. In data set [2] (setting [3]), the Cmax worked out at 20 µM. In addition, in data set [2] (female, mouse, plasma, ip, 20 mg kg^−1, i.p., ICR mice, read-out: plasma half-life (t1/2) (converted)), the half-life was 3.4 h. In addition, the “plasma concentration maintained over 24 h” value in data set [2] (single i.p. injection 20 mg/kg) is “above 200 nM”.

What is called AUC is concentration integrated over time. A high value points to high exposure. One may read the Cmax as the peak of the concentration-time curve.
